Laboratory results: patent US9724352B2, “Pyrrolo[2,1-F[1,2,4]triazine compounds, preparation methods and applications thereof” (Shanghai Institute of Materia Medica, Chinese Academy of …, priority 2012, dated 2017)

What was measured:
[1] = system: human rhabdomyosarcoma Rh30 cells; test: Proliferation of Rh30 cells (sulforhodamine B); format: cell-based; conditions: for IC50: Homo sapiens, Rh30, 72 h, read-out: IC50 against proliferation of Rh30 cells; for inhibitory activity on Rh30 cell proliferation (in words): 72 h
Procedure: Rh30 cells were seeded in a 96-well plate at 3000 cells/well. After the cells adhered, tested compounds at concentration of 10, 3, 1, 0.3, or 0.1 μM were added, and incubated for 72 h. The culture media were discarded and cells were fixed with trichloroacetic acid. After washed with distilled water for five times and dried, sulfonylrhodamine B was added. After washed with 1% glacial acetic acid for five times and dried, trihydroxymethylaminomethane buffer was added. OD value was measured by using a microplate reader at a wavelength of 560 nm.

[2] = system: human neuroglioma U87-MG xenograft; test: Growth of U87-MG xenograft subcutaneously transplanted in nude mouse; format: in vivo; conditions: for growth of subcutaneously transplanted U87MG xenograft (in words): p.o. once a day for three weeks
Procedure: Well-developed tumors in nude mice were cut into 1.5 mm3 fragments and transplanted s.c. into the right flank of nude mice under sterile conditions. The diameters of subcutaneously transplanted tumours in nude mice were measured with a vernier calipe. […] Control groups were given the same amount of blank solvent, and treatment groups received tested compounds (p.o.). Compounds were administrated once a day for three weeks. Throughout the experiment, the sizes of the tumours were measured twice per week and meanwile the body weights of mice were weighed. The tumour volume (TV) was calculated as follows: TV=½×a×b2, wherein a and b represent the length and width, respectively. The individual relative tumour volume (RTV) was calculated as follows: RTV=Vt/V0, where V0 is the volume at the beginning of the treatment and Vt is the volume measured every time. Evaluation index of antitumor activity was relative tumor proliferation rate T/C (%), the calculation formula of which was as follows: T/C (%)=(TRTV/CRTV)×100%, TRTV:RTV of treatment group; CRTV:RTV of negative control group.

Structure (SMILES): CN(C)Cc1cc2c(N3CCOCC3)nc(-c3ccc(NC(=O)Nc4ccc(C(=O)N(C)C)cc4)cc3)nn2c1 [Compound I-14, 4-(3-(4-(6-((dimethylamino)methyl)-4-morpholinopyrrolo[2,1-f][1,2,4]triazin-2-yl)phenyl)ureido)-N,N-dimethylbenzamide]
- IC50 [1]: 500 nM

Structure (SMILES): C[C@H]1COCCN1c1nc(-c2cnc(N)cc2C(F)(F)F)nn2cc(CN3CCN(S(C)(=O)=O)CC3)cc12 [Compound I-34, (S)-5-(4-(3-methylmorpholino)-6-((4-(methylsulfonyl)piperazin-1-yl)methyl)pyrrolo[2,1-f][1,2,4]triazin-2-yl)-4-(trifluoromethyl)pyridin-2-amine]
- IC50 [1]: 530 nM

Structure (SMILES): CS(=O)(=O)N1CCN(Cc2cc3c(N4CCOCC4)nc(-c4cnc(NC(=O)Oc5ccccc5)cc4C(F)(F)F)nn3c2)CC1 [Compound I-31, Phenyl (5-(6-((4-(methylsulfonyl)piperazin-1-yl)methyl)-4-morpholinopyrrolo[2,1-f][1,2,4]triazin-2-yl)-4-(trifluoromethyl)pyridin-2-yl)carbamate]
- IC50 [1]: 5060 nM

Structure (SMILES): CN(C)Cc1cc2c(N3CCOCC3)nc(-c3ccc(NC(=O)Nc4ccc(Cl)cc4)cc3)nn2c1 [Compound I-5, 1-[4-(6-dimethylaminomethyl-4-morpholinopyrrolo[2,1-f][1,2,4]triazin-2-yl)phenyl]-3-(p-chlorophenyl)urea]
- IC50 [1]: 1240 nM

Structure (SMILES): CN(C)Cc1cc2c(N3CCOCC3)nc(-c3cccc(CNS(C)(=O)=O)c3)nn2c1 [Compound I-26, N-(3-(6-((dimethylamino)methyl)-4-morpholinopyrrolo[2,1-f][1,2,4]triazin-2-yl)benzyl)methanesulfonamide]
- IC50 [1]: 240 nM

Structure (SMILES): CS(=O)(=O)N1CCN(Cc2cc3c(N4CC5CCC(C4)O5)nc(-c4cnc(N)cc4C(F)(F)F)nn3c2)CC1 [Compound I-29, 5-(4-(8-oxa-3-azabicyclo[3.2.1]octan-3-yl)-6-((4-(methylsulfonyl)piperazin-1-yl)methyl)pyrrolo[2,1-f][1,2,4]triazin-2-yl)-4-(trifluoromethyl)pyridin-2-amine]
- IC50 [1]: 3420 nM

Structure (SMILES): COC(=O)Nc1cc(C(F)(F)F)c(-c2nc(N3CCOCC3)c3cc(CN4CCN(S(C)(=O)=O)CC4)cn3n2)cn1.CS(=O)(=O)O [I-33 (mesylate), Methyl (5-(6-((4-(methylsulfonyl)piperazin-1-yl)methyl)-4-morpholinopyrrolo[2,1-f][1,2,4]triazin-2-yl)-4-(trifluoromethyl)pyridin-2-yl)carbamate mesylate]
- Relative tumor proliferation rate T/C ([2]; 20 mg/kg p.o. once a day, d0): 100.00%
- Relative tumor proliferation rate T/C ([2]; 20 mg/kg p.o. once a day, d3): 84.69%
- Relative tumor proliferation rate T/C ([2]; 20 mg/kg p.o. once a day, d7): 65.90%
- Relative tumor proliferation rate T/C ([2]; 20 mg/kg p.o. once a day, d10): 55.24%
- Relative tumor proliferation rate T/C ([2]; 20 mg/kg p.o. once a day, d14): 37.48%
- Relative tumor proliferation rate T/C ([2]; 20 mg/kg p.o. once a day, d17): 31.92%
- Relative tumor proliferation rate T/C ([2]; 20 mg/kg p.o. once a day, d21): 32.61%
- Relative tumor proliferation rate T/C ([2]; 50 mg/kg p.o. once a day, d0): 100.00%
- Relative tumor proliferation rate T/C ([2]; 50 mg/kg p.o. once a day, d3): 82.76%
- Relative tumor proliferation rate T/C ([2]; 50 mg/kg p.o. once a day, d7): 59.61%
- Relative tumor proliferation rate T/C ([2]; 50 mg/kg p.o. once a day, d10): 54.74%
- Relative tumor proliferation rate T/C ([2]; 50 mg/kg p.o. once a day, d14): 36.93%
- Relative tumor proliferation rate T/C ([2]; 50 mg/kg p.o. once a day, d17): 29.89%
- Relative tumor proliferation rate T/C ([2]; 50 mg/kg p.o. once a day, d21): 25.65%
- growth of subcutaneously transplanted U87MG xenograft (in words) [2]: significantly inhibited the growth

Structure (SMILES): CN(C)Cc1cc2c(N3CCOCC3)nc(-c3ccc(NC(=O)Nc4cccc(Cl)c4)cc3)nn2c1 [Compound I-6, 1-(3-chlorophenyl)-3-(4-(6-((dimethylamino)methyl)-4-morpholinopyrrolo[2,1-f][1,2,4]triazin-2-yl)phenyl)urea]
- IC50 [1]: 1360 nM

Structure (SMILES): CN(C)Cc1cc2c(N3CCOCC3)nc(-c3cccc(CO)c3)nn2c1 [Compound I-24, (3-(6-((dimethylamino)methyl)-4-morpholinopyrrolo[2,1-f][1,2,4]triazin-2-yl)phenyl)methanol]
- inhibitory activity on Rh30 cell proliferation (in words) [1]: tens of nanomolar
- IC50 [1]: 74 nM

Structure (SMILES): CN(C)Cc1cc2c(N3CCOCC3)nc(-c3ccc(NC(=O)Nc4ccc(F)cc4)cc3)nn2c1 [Compound I-4, 1-[4-(6-dimethylaminomethyl-4-morpholinopyrrolo[2,1-f][1,2,4]triazin-2-yl)phenyl]-3-(p-fluorophenyl)urea]
- IC50 [1]: 400 nM

Structure (SMILES): CCNC(=O)Nc1cc(C(F)(F)F)c(-c2nc(N3CCOCC3)c3cc(CN4CCN(S(C)(=O)=O)CC4)cn3n2)cn1.CS(=O)(=O)O [I-30 (mesylate), 1-Ethyl-3-(5-(6-((4-(methylsulfonyl)piperazin-1-yl)methyl)-4-morpholinopyrrolo[2,1-f] [1,2,4]triazin-2-yl)-4-(trifluoromethyl)pyridin-2-yl)urea mesylate]
- Relative tumor proliferation rate T/C ([2]; 50 mg/kg p.o. once a day, d0): 100.00%
- Relative tumor proliferation rate T/C ([2]; 50 mg/kg p.o. once a day, d3): 67.89%
- Relative tumor proliferation rate T/C ([2]; 50 mg/kg p.o. once a day, d7): 54.35%
- Relative tumor proliferation rate T/C ([2]; 50 mg/kg p.o. once a day, d10): 60.45%
- Relative tumor proliferation rate T/C ([2]; 50 mg/kg p.o. once a day, d14): 42.46%
- Relative tumor proliferation rate T/C ([2]; 50 mg/kg p.o. once a day, d17): 41.64%
- Relative tumor proliferation rate T/C ([2]; 50 mg/kg p.o. once a day, d21): 37.26%
- growth of subcutaneously transplanted U87MG xenograft (in words) [2]: significant inhibitory effects

Structure (SMILES): Cc1ccc(NC(=O)Nc2ccc(-c3nc(N4CCOCC4)c4cc(CN(C)C)cn4n3)cc2)cc1 [Compound I-9, 1-(4-(6-((dimethylamino)methyl)-4-morpholinopyrrolo[2,1-f][1,2,4]triazin-2-yl)phenyl)-3-(p-tolyl)urea]
- IC50 [1]: 990 nM

Structure (SMILES): CN(C)Cc1cc2c(N3CCOCC3)nc(-c3cccc(CS(C)(=O)=O)c3)nn2c1 [Compound I-25, N,N-dimethyl-1-(2-(3-((methylsulfonyl)methyl)phenyl)-4-morpholinopyrrolo[2,1-f][1,2,4]triazin-6-yl)methanamine]
- inhibitory activity on Rh30 cell proliferation (in words) [1]: tens of nanomolar
- IC50 [1]: 39 nM
